B1: FGF7: Recombinant human FGF7 from Sigma (protein, UniProt P21781 32-194, looked up)
Fibroblast growth factor 7: CNDMTPEQMATNVNCSSPERHTRSYDYMEGGDIRVRRLFCRTQWYLRIDKRGKVKGTQEMKNNYNIMEIRTVAVGIVAIKGVESEFYLAMNKEGKLYAKKECNEDCNFKELILENHYNTYASAKWTHNGGEMFVALNQKGIPVRGKKTKKEQKTAHFLPMAIT

Columns and labels:
Format in all cases: cell-based, human
Wnt1 = experiment: RT-PCR expression in Caco-2 cells after FGF treatment: Wnt1; conditions: normalized to PBS treatment, defined as 1.0
From the text: (§1) Five μg of total RNA was isolated from Caco-2 cells using Trizol reagent (Life Tech, Rockville, Md.) followed by reverse transcription with random hexamers. Specific oligomers were designed based on published sequences in order to detect the expression of specific human Wnt, Fz and syndecan isoforms. Sequences of primer pairs were as follows: Wnt-1: 5′-CACGACCTCGTCTACTTCGAC-3′ (SEQ ID NO: 17) and 5′-ACAGACACTCGTGCAGTACGC-3′ (SEQ ID NO: 18); Wnt-2: 5′-CATGGTGGTACATGAGAGCTAC-3′ (SEQ ID NO: 19) and 5′-GGCAAATACAACTCCAGCTGAG-3′ (SEQ ID NO: 20); Wnt-3: 5′-GAGAGCCTCCCCGTCCACAG-3′ (SEQ ID NO: 21) and 5′-CTGCCAGGAGTGTATTCGCATC-3′ (SEQ ID NO: 22); Wnt-3a: 5′-CAGGAACTACGTGGAGATCATG-3′ (SEQ ID NO: 23) and 5′-CCATCCCACCAAACTCGATGTC-3′ (SEQ ID NO: 24); Fz-1: 5′-GAACTTTCCTCCAACTTCATGGC-3′ (SEQ ID NO: 25) and 5′-CATTTCCATTTTACAGACCGG-3′ (SEQ ID NO: 26); Fz-2: 5′-GGTGAGCCAGCACTGCAAGAG-3′ (SEQ ID NO: 27) and 5′-CCTAAAAGTGAAATGGTTTCGATCG-3′ (SEQ ID NO: 28); Fz-10: 5′-ACACGTCCAACGCCAGCATG-3′ (SEQ ID NO: 29) and 5′-ACGAGTCATGTTGTAGCCGATG-3′ (SEQ ID NO: 30); and Syndecan-1/Sdc-1/CD138: 5′-CTTCACACTCCCCACACAGA-3′ (SEQ ID NO: 31) and 5′-TCCTGTTTGGTGGGCTTCTG-3′ (SEQ ID NO: 32). To control for total cell […], RT-PCR was also performed on β-actin using the primers 5′-GCCAGCTCACCATGGATGATGATAT-3′ (SEQ ID NO: 33) and 5′-GCTTGCTGATCCACATCTGCTGGAA-3′ (SEQ ID NO: 34). PCR was performed using the Advantage-GC cDNA kit from Clontech as per manufacturer's instructions (Palo Alto, Calif.).

Fz1 = experiment: RT-PCR expression in Caco-2 cells after FGF treatment: Fz1; conditions: normalized to PBS treatment, defined as 1.0
From the text: as §1

syndecan-1 = experiment: Immunohistochemistry for syndecan-1 in Caco-2 cells; conditions: for syndecan-1 localization, one hour after treatment: 1 hour; for syndecan-1 distribution after 24 hours: compared to FGF1 treated cells
Description: (§2) Caco-2 cells were grown to just prior to confluency on collagen IV coated glass slides. Cells were treated with PBS, FGF1, FGF2 and FGF7, and were incubated at 37° C. in a 5% CO2 humidified incubator for 1 hour, 4 hours, 24 hours or 48 hours, as noted. Cells were washed with PBS, fixed with 3.7% formalin for 10 minutes and washed again with PBS. Cells were treated with 0.1% Triton x-100 for 5 minutes to extract lipids. Cells were washed with PBS and preincubated with PBS supplemented with 1% bovine serum albumin. Primary antibodies were added for 4 hours at room temperature, and cells were washed with PBS. Primary antibodies used were as follows: rabbit anti-human ZO-1 (1:160; Zymed Laboratories, San Francisco, Calif.); mouse anti-human syndecan-1 (1:300; Santa Cruz Biotechnology); goat anti-human Fz-1 (1:125; Santa Cruz Biotechnology); rabbit anti-human caveolin-1 (1:250; Santa Cruz Biotechnology); goat anti-human glypican-1 (1:100; Santa Cruz Biotechnology); mouse anti-human E-cadherin (1:250; Zymed Laboratories); rabbit anti-human β-catenin (1:125; Cell Signaling Technology, Beverly, Mass.); and rabbit anti-human phospho-β-catenin (Ser33/37/Thr41; 1:125; Cell Signaling Technology, Beverly, Mass.).
Cells were then treated with secondary antibodies, Texas Red-labeled phalloidin (Molecular Probes, Eugene, Oreg.) or FLAER-FL1 (1:400; Protox Biotech, Victoria, BC, Canada) as appropriate for 1 hour in the dark at room temperature. Secondary antibodies used were as follows: FITC-labeled chicken anti-rabbit (for ZO-1; 1:100; Molecular Probes, Eugene, Oreg.); Texas Red-labeled goat-anti mouse (for syndecan-1; 1:400; Molecular Probes); FITC-labeled donkey anti-mouse (for syndecan-1; 1:400; Molecular Probes, Eugene, Oreg.); FITC-labeled rabbit anti-mouse (for syndecan-1 and E-cadherin; 1:500; Molecular Probes, Eugene, Oreg.); Texas Red-labeled rabbit anti-goat (for Fz-1; 1:200; Jackson ImmunoResearch Laboratories, West Grove, Pa.); Texas Red-labeled goat anti-rabbit (for caveolin-1, β-catenin and phospho-β-catenin; 1:500; Molecular Probes); and Texas Red-labeled donkey anti-goat (for glypican-1; 1:80; Research Diagnostics, Flanders, N.J.).
Cells, except those stained with phalloidin, were washed with PBS and stained with diamidino-2-phenylindole (DAPI) for 5 minutes at room temperature (Molecular Probes). Controls of no antibody, primary antibody only, and secondary antibody only were performed. Cells were examined by confocal microscopy (ZO-1 and phalloidin only), or by fluorescence microscopy. A Nikon HB10101AF fluorescence microscope was used and images were captured at room temperature using a Hitachi HVC20 camera and Scion image acquisition software. Images were processed using Adobe Photoshop 7.0 and Adobe Illustrator 10.0.

β-catenin = experiment: Immunohistochemistry for β-catenin in Caco-2 cells; conditions: compared to PBS treatment
Description: as §2
Cells were then treated with secondary antibodies, Texas Red-labeled phalloidin (Molecular Probes, Eugene, Oreg.) or FLAER-FL1 (1:400; Protox Biotech, Victoria, BC, Canada) as appropriate for 1 hour in the dark at room temperature. […]
Cells, except those stained with phalloidin, were washed with PBS and stained with diamidino-2-phenylindole (DAPI) for 5 minutes at room temperature (Molecular Probes). […] Cells were examined by confocal microscopy (ZO-1 and phalloidin only), or by fluorescence microscopy. A Nikon HB10101AF fluorescence microscope was used and images were captured at room temperature using a Hitachi HVC20 camera and Scion image acquisition software. […]

TCF/LEF = TCF/LEF assay (TOPFLASH luciferase) in Caco-2 cells; conditions: compared to PBS and FGF1
Description: Caco-2 cells were seeded in 12 well plates such that they would reach 90% confluency in 4 days. Two days after plating, Caco-2 cells were transiently transfected with the TOPFLASH (contains 4 TCF/LEF binding elements) luciferase promoter construct (Promega, Madison, Wis.) as well as a thymidine kinase driven renilla luciferase construct (Promega, Madison, Wis.) as a transfection control vector. Each well was transfected with 1.5 μg DNA using Superfect transfection reagent (Promega, Madison, Wis.). Twenty-four hours after transfection, Caco-2 cells were treated with PBS, FGF1, FGF2 or FGF7, for 1 hour, 4 hours or 24 hours. The Caco-2 cells were processed using a dual-luciferase assay system to measure luciferase activity from both the TOPFLASH constructs and the renilla constructs. All results were standardized to the relative transfection efficiencies as observed from the renilla values.

| Molecule | Wnt1 expression (intensity of RT-PCR images) (Wnt1) | Fz1 expression (intensity of RT-PCR images) (Fz1) | syndecan-1 localization, one hour after treatment (syndecan-1) | cytoplasmic β-catenin after 24 hours (β-catenin) | TCF/LEF activity (TCF/LEF) | syndecan-1 distribution after 24 hours (syndecan-1) |
| --- | --- | --- | --- | --- | --- | --- |
| FGF1: Recombinant human FGF1 from Amgen | 2.2 | 1.5 | seen to a lesser amount | potentially reduced levels of cytoplasmic β-catenin |  |  |
| FGF2: Recombinant human FGF2, produced as described | 2.7 | 1.1 | primarily localized around the nucleus | induced markedly increased cytoplasmic β-catenin | increased TCF/LEF activity | moderately enhanced cytoplasmic and membrane-associated distribution of syndecan-1 |
| B1 | 5.1 | 2.4 | primarily localized around the nucleus | induced markedly increased cytoplasmic β-catenin | increased TCF/LEF activity | moderately enhanced cytoplasmic and membrane-associated distribution of syndecan-1 |

Reference: patent publication US20090156477A1, “Compositions and Methods for Regulating Inflammatory Responses” (Massachusetts Institute of Technology, priority 2005, published 2009)
